Assay results from patent publication US10806729B2, “Quinoline derivatives for use in the treatment or prevention of viral infection” (ABIVAX, priority 2015, dated 2020).

Columns and labels:
[1] = test system: HIV-1; conditions: human PBMCs, increasing drug pressure
Procedure: Resistance to Compound 22 was tested on human PBMCs and compared to current therapies. […] Various classes of antiviral agents can affect the life cycle of HIV-1 in different manners. […] The selection of drug resistant mutants in vitro can be readily accomplished by maintaining the virus in a state of sub-optimal growth, regulated by slowly increasing the amount of drug pressure applied. This technique mimics the consequences of drug therapy in patients. Therefore, in this way, novel compounds can be assessed for their selection profile in order to evaluate the likelihood of emergence of HIV-1 drug resistance in future clinical trials. In addition, combinations of drugs can be investigated in the same manner.

[2] = test system: HIV-1 strain YU2; experiment: HIV-1 p24 production in infected monocyte derived macrophages (ELISA); type: cell-based; conditions: Human immunodeficiency virus 1, Primary macrophage; primary macrophages infected with Yu-2, at 0.1 μM; read-out: inhibition levels of virus replication (p24)
Source text: FIG. 1. Potency of quinoline derivatives to inhibit HIV-1 production in PBMC- and macrophages-infected cells. […] Each point represents 6 donors. B) HIV-1 strain YU2 was used to infect triplicate of monocyte derived-macrophages from different donors in the absence or presence of increasing concentrations of Compound 22. […] Each point represents 8 donors. To generate monocyte derived macrophages (MDMs), monocytes were isolated using CD14 microbeads (catalog no. 130-050-201; Miltenyi) and cultured in X-VIVO10 medium (Lonza) supplemented with GM-CSF 1000 U/ml and M-CSF 100 ng/ml for 6 days. Monocytes were seeded at a cell count of 50,000 cells per well in a 96 well plate. After 6 days medium was replaced with X-VIVO10 w/o Cytokines. After 2 days Macrophages were treated with Compound 22 and/or its N-glucuronide metabolite o/n and next day infected with Yu-2 virus for 6 hrs, washed with PBS and cultured in medium containing the compounds for 12 days. Supernatant for p24 Elisa was collected 2 times a week. Cells were treated with 0.01 μM up to 30 μM and p24 antigen levels were monitored in culture supernatant over a 12 day period. Cell culture supernatant HIV p24 titration was performed by ELISA with Ingen Innotest kit (Ingen Ref 80564) according to the manufacturer's instructions.

Compound | Time of Selection (weeks) [1] [weeks] | inhibition at 0.1 µM [2] [%]
Cc1ccnc2c1NC(=O)c1cccnc1N2C1CC1 [Nevirapine, reference compound] | 3 | 
O=C(O)[C@H]1O[C@@H](N(c2ccc(OC(F)(F)F)cc2)c2ccc3cccc(Cl)c3n2)[C@H](O)[C@@H](O)[C@@H]1O [N-glucuronide metabolite] |  | ≤ 90
C[C@H](Cn1cnc2c(N)ncnc21)OCP(=O)(O)O [Tenofovir, reference compound] | 12 | 
